Experimental data from EPA's ToxValDB 9.5 (doi:10.2903/j.efsa.2018.5146).
In brackets after ≈: the same amount, converted by molar mass.

Experiments:
[1] = test system: Oryctolagus sp.
[2] = test system: Oncorhynchus mykiss; conditions: acute; duration: 96 hours; mortality
[3] = test system: Mus musculus; conditions: organ weight
[4] = test system: Colinus virginianus
[5] = test system: Rattus norvegicus; conditions: acute; oral; mortality
[6] = test system: Apis mellifera; conditions: acute, mortality
[7] = test system: Tagia sp.; conditions: chronic/long-term; reproduction
[8] = test system: Folsomia candida; conditions: chronic/long-term; reproduction
[9] = chronic; duration: 133 days; other
[10] = test system: Aphidius rhopalosiphi; experiment: LR50; higher = less toxic; conditions: acute; mortality

COc1ccnc(C(=O)N[C@H]2COC(=O)[C@H](Cc3ccccc3)[C@@H](OC(=O)C(C)C)[C@H](C)OC2=O)c1OCOC(=O)C(C)C [Fenpicoxamid]
NOAEL ([1]; chronic, New Zealand, no effects): 495 mg/kg-day
NOAEL ([1]; reproduction developmental, reproduction): 177 mg/kg-day
LC50 [2]: 1.1 µg/mL (≈ 1.79 µM)
NOAEL ([3]; chronic, duration: 18 months): 5.27 mg/kg-day
NOAEL ([3]; subchronic, duration: 90 days, oral): 39.6 mg/kg-day
LD50 ([4]; acute, oral, mortality): > 2000 mg/kg-day
NOEC ([4]; reproduction developmental): 12.1 mg/kg-day
LD50 [5]: > 2000 mg/kg-day
LD50 ([6]; dermal): > 202 µg/piece
LD50 ([6]; oral, unspecified): > 303 µg/piece
NOEC [7]: 9.93 mg/kg
NOEC [8]: 3.97 mg/kg
NOEC [9]: 0.0001 mg/L
LR50 [10]: > 129 g/ha
